The term pIC50 denotes the negative decadic logarithm of the IC50, by convention in mol/L.

pIC50: −log10 of the molar value. Where two headings read alike, the source gives them in different places. Bounds are passed on as bounds.

Experimental findings from patent publication US20240327334A1, “Covalent Inhibitors As Antiviral Agents” (Enanta Pharmaceuticals, Inc., priority 2022, published 2024) are described below.

The target in the assay is SARS-CoV-2 Papain-like (PLpro) protease (Severe acute respiratory syndrome coronavirus 2, UniProt P0DTD1). Briefly: SARS-CoV-2 Papain-like (PLpro) protease biochemical enzyme inhibition assay (ubiquitin-fluorophore substrate, Ub-R110).
Where [1] appears, read: Ub-R110 substrate, run in duplicate, read-out: PLpro IC50.

Regarding `Cn1ccc(C#CCNC(=O)C(=O)NCc2ccccc2C(=O)NC2(c3ccc4ccccc4c3)CC2)n1` [Example 397], the pIC50 under setting [1] was 6.00 to 7.00.

For `N#Cc1ccc(C#CCNC(=O)C(=O)NCc2ccccc2C(=O)NC2(c3ccc4ccccc4c3)CC2)s1` [Example 92], the pIC50 under setting [1] was 5.00 to 6.00.

In the case of `NNC(=O)/C=C/CNC(=O)C(=O)NCc1ccccc1C(=O)NC1(c2cccc3ccccc23)CC1` [Example 553], the pIC50 under setting [1] is 6.00 to 7.00.

Consider `CN1CCC(n2cc(-c3cc(F)cc(C4(NC(=O)c5ccccc5CNC(=O)C(=O)NCC#Cc5cnc(F)nc5)CC4)c3)cn2)CC1` [Example 256], for which the pIC50 under setting [1] was above 7.00.

Turning to `COc1cc(C2(NC(=O)c3ccccc3CNC(=O)C(=O)NC/C=C/c3cnccn3)CC2)cc2cn(C3CC3)nc12` [Example 579], the negative logarithm of the IC50 (pIC50) under setting [1] was 6.00 to 7.00.

Consider `C[C@@H](C#Cc1ncccc1C(F)(F)F)NC(=O)C(=O)NCc1ccccc1C(=O)NC1(c2cc(F)cc(-c3cnn(C4CC4)c3)c2)CC1` [Example 142], for which the pIC50 under setting [1] is 6.00 to 7.00.

On to `N#CCNC(=O)C(=O)NCc1ccccc1C(=O)NC1(c2cc(N3CCOC3=O)cc3ccccc23)CC1` [Example 317], for which, under setting [1], the pIC50 is above 7.00.

With `O=C(NCc1ccccc1C(=O)NC1(c2ccc(F)c3ccccc23)CC1)C(=O)N[C@@H]1CNC1=O` [Example 123], the pIC50 under setting [1] is below 5.00.

Take `O=C(NC/C=C/c1ccccn1)C(=O)NCc1ccccc1C(=O)NC1(c2ccc3ccccc3c2)CC1` [Example 578]: under setting [1], the pIC50 was 6.00 to 7.00.

On to `N#C[C@@H]1CCN1C(=O)C(=O)NCc1ccccc1C(=O)NC1(c2cccc3ccccc23)CC1` [Example 119], for which the pIC50 under setting [1] is 5.00 to 6.00.

Turning to `N#CCNC(=O)C(=O)NCc1ccccc1C(=O)NC1(c2cc(F)cc(C(F)(F)F)c2)CC1` [Example 375], the pIC50 under setting [1] was 5.00 to 6.00.

For `N#CCNC(=O)C(=O)NCc1ccccc1C(=O)NC1(c2cc(-c3cnn(C4CC4)c3)nc3[nH]ccc23)CC1` [Example 414], the negative-log IC50 (pIC50) under setting [1] was 6.00 to 7.00.

Take `C[C@@H](NC(=O)c1ccccc1CNC(=O)C(=O)NC/C=C/C(=O)N1CC[C@H](C#N)C1)c1cccc2ccccc12` [Example 550]: the pIC50 under setting [1] was below 5.00.

Take `C[C@@H](C#Cc1ccc(Cl)cc1C#N)NC(=O)C(=O)NCc1ccccc1C(=O)NC1(c2ccc3nn(C)cc3c2)CC1` [Example 113]: the pIC50 under setting [1] was above 7.00.

`CNC(=O)/C=C/CNC(=O)C(=O)NCc1ccccc1C(=O)N[C@H](C)c1cccc2ccccc12` [Example 16]: under setting [1], the negative logarithm of the IC50 (pIC50) was 5.00 to 6.00.

On to `O=C(NCC#Cc1cc(F)cc(F)c1)C(=O)NCc1ccccc1C(=O)NC1(c2ccc3ccccc3c2)CC1` [Example 75], for which the pIC50 under setting [1] was below 5.00.

On to `CC(C)(O)/C=C/c1cc(C2(NC(=O)c3ccccc3CNC(=O)C(=O)NCC#N)CC2)c2ccccc2c1` [Example 422], for which, under setting [1], the negative-log IC50 (pIC50) is above 7.00.

For `N#CCNC(=O)C(=O)NCc1ccccc1C(=O)NC1(c2cccn3nccc23)CC1` [Example 405], the pIC50 under setting [1] was 6.00 to 7.00.

For `CC#CCNC(=O)C(=O)NCc1ccccc1C(=O)NC1(c2cccc3ccccc23)CC1` [Example 150], the negative logarithm of the IC50 (pIC50) under setting [1] is 5.00 to 6.00.

On to `N#Cc1ccc(C#CCNC(=O)C(=O)NCc2ccccc2C(=O)NC2(c3ccc4ccccc4c3)CC2)c(C(F)(F)F)c1` [Example 95], for which the pIC50 under setting [1] is 6.00 to 7.00.

In the case of `N#CCCOC(=O)NCc1ccccc1C(=O)NC1(c2cc(Br)cc3ccccc23)CC1` [Example 420], under setting [1], the pIC50 was 5.00 to 6.00.

As to `C[C@@H](NC(=O)c1cc(F)cc(F)c1CNC(=O)C(=O)NCC#N)c1cccc2ccccc12` [Example 361], the pIC50 under setting [1] was below 5.00.

`N#CCNC(=O)C(=O)NCc1ccccc1C(=O)NC1(c2cc(-c3cn(-c4ccc(F)cc4F)nn3)cc(C(F)(F)F)c2)CC1` [Example 58]: the negative logarithm of the IC50 (pIC50) under setting [1] is below 5.00.

For `CN(C#N)NC(=O)C(=O)NCc1ccccc1C(=O)NC1(c2ccc(F)c3ccccc23)CC1` [Example 124], under setting [1], the pIC50 was 5.00 to 6.00.

Turning to `O=C(NCC#Cc1cccnc1)C(=O)NCc1ccccc1C(=O)NC1(c2ccc3ccccc3c2)CC1` [Example 170], the pIC50 under setting [1] is 5.00 to 6.00.

Turning to `CCOc1cccnc1C#CC1(NC(=O)C(=O)NCc2ccccc2C(=O)NC2(c3ccc4ccccc4c3)CC2)CC1` [Example 203], under setting [1], the negative-log IC50 (pIC50) is below 5.00.

In the case of `C#CCNC(=O)C(=O)NCc1ccccc1C(=O)NC1(c2cc(Cl)c3nn(C4CC4)cc3c2)CC1` [Example 339], the pIC50 under setting [1] is above 7.00.

For `C=C(CNC(=O)C(=O)NCc1ccccc1C(=O)N[C@H](C)c1cccc2ccccc12)C(=O)O` [Example 42], under setting [1], the pIC50 was below 5.00.

On to `N#C/C=C/CCNC(=O)C(=O)NCc1ccccc1C(=O)NC1(c2ccc3c4c(cccc24)CC3)CC1` [Example 437], for which the pIC50 under setting [1] was 6.00 to 7.00.

With `C[C@@H](NC(=O)c1ccccc1CNC(=O)C(=O)NC1(C#N)CC1)c1cccc2ccccc12` [Example 15], the negative-log IC50 (pIC50) under setting [1] was below 5.00.

Regarding `O=C(NCC#Cc1nccs1)C(=O)NCc1ccccc1C(=O)NC1(c2cc(Cl)cc(-c3nccs3)c2)CC1` [Example 488], the negative logarithm of the IC50 (pIC50) under setting [1] was above 7.00.

Regarding `Cn1ccc2c(C3(NC(=O)c4ccccc4CNC(=O)C(=O)NCC#N)CC3)cccc21` [Example 533], the negative logarithm of the IC50 (pIC50) under setting [1] was 6.00 to 7.00.

For `Cn1cc2cc(C3(NC(=O)c4ccccc4CNC(=O)C(=O)NCC#Cc4ccc(Cl)cc4F)CC3)ccc2n1` [Example 148], the negative logarithm of the IC50 (pIC50) under setting [1] was above 7.00.

As to `C#C[C@H](C)NC(=O)C(=O)NCc1ccccc1C(=O)NC1(c2cc(F)cc(-c3cnn(C4CC4)c3)c2)CC1` [Example 141], under setting [1], the negative-log IC50 (pIC50) was 6.00 to 7.00.

For the compound `O=C(C#CCNC(=O)C(=O)NCc1ccccc1C(=O)NC1(c2cc(-c3cccs3)cc(C(F)(F)F)c2)CC1)NC1CC1` [Example 522], under setting [1], the pIC50 was 6.00 to 7.00.

Regarding `N#CCCCCNC(=O)C(=O)NCc1ccccc1C(=O)NC1(c2cc(Br)cc3ccccc23)CC1` [Example 421], the pIC50 under setting [1] was 5.00 to 6.00.

As to `N#Cc1cccc(C#CCNC(=O)C(=O)NCc2ccccc2C(=O)NC2(c3ccc4ccccc4c3)CC2)c1` [Example 93], the negative-log IC50 (pIC50) under setting [1] was below 5.00.

Take `COC(=O)/C=C/CNC(=O)C(=O)NCCc1ccccc1C(=O)N[C@H](C)c1cccc2ccccc12` [Example 37]: under setting [1], the pIC50 was 6.00 to 7.00.

With `COC(=O)/C=C/CNC(=O)C(=O)NC(C)c1ccccc1C(=O)N[C@H](C)c1cccc2ccccc12` (some centres unmarked) [Example 52], under setting [1], the pIC50 is 5.00 to 6.00.

As for `COC(=O)/C=C/CN(C)C(=O)C(=O)NCc1ccccc1C(=O)N[C@H](C)c1cccc2ccccc12` [Example 546], the pIC50 under setting [1] is 5.00 to 6.00.

`N#CCNC(=O)C(=O)NCc1ccccc1C(=O)NC1(c2cccc3ccccc23)COC1` [Example 96]: the negative logarithm of the IC50 (pIC50) under setting [1] is below 5.00.

For the compound `CC(C)[C@@H](C#Cc1ccccn1)NC(=O)C(=O)NCc1ccccc1C(=O)NC1(c2ccc3nn(C)cc3c2)CC1` [Example 204], the pIC50 under setting [1] was below 5.00.

In the case of `C[C@@H](NC(=O)c1ccccc1CNC(=O)C(=O)NCC#N)c1cc(-c2ccccc2)cc(C(F)(F)F)c1` [Example 34], under setting [1], the pIC50 is above 7.00.

As to `Cn1cc(C#CCNC(=O)C(=O)NCc2ccccc2C(=O)NC2(c3ccc4ccccc4c3)CC2)cn1` [Example 169], the negative-log IC50 (pIC50) under setting [1] was below 5.00.

With `N#CCNC(=O)C(=O)NCc1ccccc1C(=O)NC1(c2cccc(Cl)c2Cl)CC1` [Example 378], the pIC50 under setting [1] was 6.00 to 7.00.

On to `C#C[C@@H](C)NC(=O)C(=O)NCc1ccccc1C(=O)NC1(c2cccc3ccccc23)CC1` [Example 157], for which the negative logarithm of the IC50 (pIC50) under setting [1] is 5.00 to 6.00.

For the compound `COC(=O)/C=C/CNC(=O)C(=O)Nc1ccccc1C(=O)N[C@H](C)c1cccc2ccccc12` [Example 11], under setting [1], the pIC50 is below 5.00.

`C#CCNC(=O)C(=O)NCc1ccccc1C(=O)NC1(c2cc(-c3nnc(C)o3)cc(-c3nnc(C)o3)c2)CC1` [Example 479]: the pIC50 under setting [1] is 6.00 to 7.00.

For the compound `N#CCNC(=O)C(=O)NCc1ccccc1C(=O)NC1(c2ccc(-c3ccc(F)cc3)cc2)CC1` [Example 542], the negative-log IC50 (pIC50) under setting [1] is below 5.00.

In the case of `N#CN1CC(CCNC(=O)C(=O)NCc2ccccc2C(=O)NC2(c3cccc4ccccc34)CC2)C1` [Example 433], under setting [1], the pIC50 is 5.00 to 6.00.

For the compound `C[C@@H](NC(=O)c1ccccc1CNC(=O)C(=O)NCCC(=O)C(F)(F)F)c1cccc2ccccc12` [Example 9], the negative-log IC50 (pIC50) under setting [1] is 5.00 to 6.00.

For `O=C(NC/C=C1\CCOC1=O)C(=O)NCc1ccccc1C(=O)NC1(c2ccc3ccccc3c2)CC1` [Example 162], under setting [1], the pIC50 is 6.00 to 7.00.

In the case of `C[C@@H](NC(=O)c1ocnc1CNC(=O)C(=O)NCC#N)c1cccc2ccccc12` [Example 365], the pIC50 under setting [1] is below 5.00.

With `COC(=O)/C=C/CCNC(=O)C(=O)NC(C)c1ccccc1C(=O)N[C@H](C)c1cccc2ccccc12` (some centres unmarked) [Example 51], the pIC50 under setting [1] is below 5.00.

For the compound `CC(C)(O)Cn1cc(-c2cc(F)cc(C3(NC(=O)c4ccccc4CNC(=O)C(=O)NCC#N)CC3)c2)cn1` [Example 282], the negative-log IC50 (pIC50) under setting [1] is 6.00 to 7.00.

With `C#CCNC(=O)C(=O)NCc1ccccc1C(=O)NC1(c2cccc3ncccc23)CC1` [Example 374], under setting [1], the pIC50 was above 7.00.

`N#C[C@H]1CCCN1C(=O)C(=O)NCc1ccccc1C(=O)NC1(c2cccc3ccccc23)CC1` [Example 118]: the negative-log IC50 (pIC50) under setting [1] is below 5.00.

For the compound `CC(C)[C@@H](C#Cc1ccccn1)NC(=O)C(=O)NCc1ccccc1C(=O)NC1(c2ccc3ccccc3c2)CC1` [Example 207], the pIC50 under setting [1] was below 5.00.

For the compound `N#CCCCNC(=O)C(=O)NCc1ccccc1C(=O)NC1(c2cccc3ccccc23)CC1` [Example 412], the negative logarithm of the IC50 (pIC50) under setting [1] was 5.00 to 6.00.

For `COc1cc(C2(NC(=O)c3ccccc3CNC(=O)C(=O)NC[C@@H]3CCN3)CC2)cc2cn(C3CC3)nc12` [Example 512], the negative logarithm of the IC50 (pIC50) under setting [1] is 5.00 to 6.00.

With `Cn1cc2c(F)c(C3(NC(=O)c4ccccc4CNC(=O)C(=O)NCC#N)CC3)ccc2n1` [Example 332], the negative logarithm of the IC50 (pIC50) under setting [1] was above 7.00.

With `O=C(NCC#Cc1nccs1)C(=O)NCc1ccccc1C(=O)NC1(c2ccc3ncccc3c2)CC1` [Example 389], the pIC50 under setting [1] was above 7.00.

For the compound `N#CCCNC(=O)C(=O)NCCc1ccccc1C(=O)NC1(c2ccc3ccccc3c2)CC1` [Example 368], under setting [1], the negative-log IC50 (pIC50) was below 5.00.

Take `CCOP(=O)(/C=C/CCNC(=O)C(=O)NCc1ccccc1C(=O)N[C@H](C)c1cccc2ccccc12)OCC` [Example 12]: the negative logarithm of the IC50 (pIC50) is below 5.00.

Consider `N#CN1CC[C@@H]1CNC(=O)C(=O)NCc1ccccc1C(=O)NC1(c2cccc3ccccc23)CC1` [Example 498], for which the pIC50 under setting [1] is 6.00 to 7.00.
